These results are taken from patent US7563819B1, “Esters of 5-aminolevulinic acid as photosensitizing agents in photochemotherapy” (Photocure ASA, priority 2000, dated 2009).

Entries after “also recorded” stand apart in the source; their conditions may differ.

One test relates to WiDr cells. In words: Measurement of porphyrin formation in cell culture in vitro. Type of test: cell-based. Conditions: 4 h incubation; for POTENCY (Relative ability to induce porphyrin formation): 0.001-1 mM, relative to ALA = 1; for potency in inducing cellular porphyrin formation relative to ALA: fold versus ALA; for ALA concentration giving the same porphyrin formation as 0.001 mM ester: ester at 0.001 mM. The protocol:
The test compounds were dissolved in DMSO to a concentration of 100 mM (stock solution). Appropriate concentrations were obtained by dilution of the stock solutions with phosphate-buffered saline (PBS) or culture medium.
WiDr cells, derived form a primary adenocarcinoma of the rectosigmoid colon, were subcultured in RPMI 1640 medium (Gibco) containing 10% fetal calf serum, 100 U/ml penicillin, 100 μg/ml streptomycin and 1% glutamine. Cells were split 1:100 twice a week, and maintained at 37° C. and 5. % CO2 in a humid environment.
5×10^5 WiDr cells in 2 ml of RPMI medium as described in the previous paragraph were added to each well in 6-well plastic tissue-culture plates (Nunc) and left for 48 hr at 37° C. and 5% CO2 in a humid environment for proper attachment to the substratum. The cells were then washed twice with RPMI 1640-medium without serum, followed by the addition to the wells of the appropriate dilutions of the test compounds in 2 ml of fresh culture medium to final concentrations of 0.001, 0.01, 0.1 and 1 mM in duplicate. The cells were incubated at 37° C. for four hours.
After treatment as described in the paragraph “treatment conditions” the cells were washed twice with PBS and brought into a solution of 1M HClO4 in 50% MeOH by scraping the cells off the substratum by means of a Costar cell scraper. Cell debris was removed by centrifugation. The porphyrin content of each sample was determined fluorometrically using a Perkin Elmer LS50B spectrofluorimeter (excitation at 407 nm, emission was measured at 606 nm using a long pass cut-off filter (530 nm) on the emission side). The fluorescence in each sample was calculated relative to the protein content in control cells as measured by the Bradford method.

Another test deals with murine skin. In words: Porphyrin formation (skin fluorescence) after topical application onto murine skin. Type of test: in vivo, Female Balb/c athymic nude mice. Conditions: topical cream on nude mouse skin, 1% (w/w), except compounds 16, 29, 30, 31 at 3% and 17-19 at 10%. The protocol: The test compounds were formulated in Unguentum Merck (cream base available from Merck, consisting of silicon dioxide, paraffin liq., vaseline, album, cetostearol, polysorbat. 40, glycerol monostearate, Miglyol®812 (a mixture of plant fatty acids), polypropyleneglycol, and purified water) to the desired concentration. Concentrations are given as % (w/w) calculated as hydrochlorides. The formulations were prepared the day before the experiment commenced and stored in the refrigerator until the day of use.
Female Balb/c athymic nude mice, weighing about 22 g, obtained from the Department of Laboratory Animals, The Norwegian Radium Hospital (Montebello, Oslo, Norway) were used in the studies.
Three mice per group was used. Each mouse received 0.05-0.1 g of formulation topically applied at the right flank of the body, evenly distributed and covered with a dressing (Opsite Flexigrid; Smith and Nephew Medical Ltd., Hull, England). The fiber point measuring device consisted of a bundle of optical fibers connected to a spectrofluorimeter which produced the excitation light of 407 nm. The excitation light, which is able to penetrate 0.1-0.5 mm into the tissue, was led through half of the fibers to the mouse skin. The resulting emission fluorescence spectrum (550-750) nm was collected and led through the remaining fibers into a photomultiplier for quantification.
After application of the cream formulation, the fluorescence spectrum from porphyrins in the skin was measured by the fiber-optical method at different intervals of time after administration.
The fluorescence intensity varied from experiment to experiment. Therefore 1% (w/w) hexyl 5-aminolevulinate-HCl was included in each experiment as an internal control.

For `NCC(=O)CCC(=O)O` [ALA, 5-aminolevulinic acid], the “POTENCY (Relative ability to induce porphyrin formation)” value in the test on WiDr cells is reported as 1.
For `CCCCC(C)OC(=O)CCC(=O)CN.Cl` (stereo not shown) [Compound 1, 1-methyl-pentyl 5-amino-4-oxopentanoate Hydrochloride], the “POTENCY (Relative ability to induce porphyrin formation)” value in the test on WiDr cells came to 3. Besides, the “efficiency in inducing porphyrin formation compared with ALA” value with WiDr cells (at low concentrations) is reported as “only slightly better than ALA”. Moreover, in the test with murine skin, the “skin fluorescence level after topical application” value (from here on “skin fluorescence level”) was “intermediate fluorescence levels”.
Consider `CC(C)c1ccc(COC(=O)CCC(=O)CN)cc1.Cl` [Compound 2, 4-Isopropylbenzyl 5-amino-4-oxopentanoate Hydrochloride], for which, in the test on WiDr cells, the “POTENCY (Relative ability to induce porphyrin formation)” value is listed as 200 and the “potency in inducing cellular porphyrin formation relative to ALA” value is listed as “approximately 200 times”. Moreover, the “skin fluorescence level” value with murine skin is listed as “intermediate levels of fluorescence”.
Take `Cc1ccc(COC(=O)CCC(=O)CN)cc1.Cl` [Compound 3, 4-Methylbenzyl 5-amino-4-oxopentanoate Hydrochloride]: in the test on WiDr cells, the “POTENCY (Relative ability to induce porphyrin formation)” value stood at 200 and the “potency in inducing cellular porphyrin formation relative to ALA” value is “approximately 200 times”. In the test with murine skin, the “skin fluorescence level” value was “high and similar levels of fluorescence”.
Consider `Cl.NCC(=O)CCC(=O)OCc1ccccc1` [Compound 4, Benzyl 5-amino-4-oxopentanoate hydrochloride], for which, in the test with WiDr cells, the “efficiency in inducing cellular porphyrin synthesis compared with ALA” value is “considerably more efficient than ALA”, the “POTENCY (Relative ability to induce porphyrin formation)” value is 100-600 and the “ALA concentration giving the same porphyrin formation as 0.001 mM ester” value is listed as 0.6 mM. The “skin fluorescence level” value with murine skin was “high levels of fluorescence”.
Take `Cl.NCC(=O)CCC(=O)OCCc1ccccc1` [Compound 5, 2-Phenylethyl 5-amino-4-oxopentanoate Hydrochloride]: in the test on WiDr cells, the “efficiency in inducing cellular porphyrin synthesis compared with ALA” value is “considerably more efficient than ALA”, the “POTENCY (Relative ability to induce porphyrin formation)” value was 500 and the “ALA concentration giving the same porphyrin formation as 0.001 mM ester” value was found to be 0.4 mM. Besides, the “skin fluorescence level” value with murine skin (Hydrochloride) is given as “low levels of fluorescence”. Besides, the “skin fluorescence level” value in the test on murine skin (listed as 2-phenyl-ethyl 5-aminolevulinate, Hydrochloride) is listed as “relatively modest fluorescence levels”.
`CCCCCCOC(=O)CCC(=O)CN.Cl` [Compound 6, hexyl 5-aminolevulinate-HCl, reference compound]: in the test on WiDr cells, the “POTENCY (Relative ability to induce porphyrin formation)” value was 100 and the “potency in inducing cellular porphyrin formation relative to ALA” value is “approximately 100 times”. Further, the “skin fluorescence level” value in the test on murine skin is “highest fluorescence; also recorded: high and similar levels of fluorescence”.
In the case of `Cl.NCC(=O)CCC(=O)OC1CCCCC1` [Compound 7, Cyclohexyl 5-amino-4-oxopentanoate Hydrochloride], the “POTENCY (Relative ability to induce porphyrin formation)” value with WiDr cells was determined as 1. Further, the figures for the “efficiency in inducing porphyrin formation compared with ALA” value in the test on WiDr cells (at higher concentrations) and in the test on WiDr cells (at low concentrations) were “less effective than ALA” and “only slightly more efficient than ALA”, respectively. Besides, the “skin fluorescence level” value in the test with murine skin is on record as “low levels of fluorescence”.
In the case of `CC(C)CCCOC(=O)CCC(=O)CN.Cl` [Compound 8, 4-Methyl-1-pentyl 5-amino-4-oxopentanoate Hydrochloride], in the test on WiDr cells, the “POTENCY (Relative ability to induce porphyrin formation)” value was found to be 100 and the “potency in inducing cellular porphyrin formation relative to ALA” value is “approximately 100 times”. The “skin fluorescence level” value with murine skin is given as “high fluorescence levels”.
`Cl.NCC(=O)CCC(=O)OCc1ccc(C(F)(F)F)cc1` [Compound 9, 4-(Trifluoromethyl)benzyl 5-amino-4-oxopentanoate Hydrochloride]: in the test with WiDr cells, the “POTENCY (Relative ability to induce porphyrin formation)” value was found to be 200 and the “potency in inducing cellular porphyrin formation relative to ALA” value is listed as “approximately 200 times”. Also, the “skin fluorescence level” value with murine skin is listed as “high fluorescence levels”.
Take `CC(C)(C)c1ccc(COC(=O)CCC(=O)CN)cc1.Cl` [Compound 10, 4-t-Butylbenzyl 5-amino-4-oxopentanoate Hydrochloride]: in the test with WiDr cells, the “POTENCY (Relative ability to induce porphyrin formation)” value worked out at 200 and the “potency in inducing cellular porphyrin formation relative to ALA” value is recorded as “approximately 200 times”. Also, the “skin fluorescence level” value in the test on murine skin is on record as “Intermediate fluorescence levels”.
The corresponding values for `Cl.NCC(=O)CCC(=O)OCc1ccc([N+](=O)[O-])cc1` [Compound 11, 4-Nitrobenzyl 5-amino-4-oxopentanoate Hydrochloride] are 200, “approximately 200 times” and “high levels of fluorescence”.
As to `CCCC(CC)OC(=O)CCC(=O)CN.Cl` (stereo not shown) [Compound 12, 3-Hexyl 5-amino-4-oxopentanoate Hydrochloride], the “skin fluorescence level” value with murine skin is reported as “gave porphyrin formation”.
On the same count and under the same terms, the value for `CCCC(C)COC(=O)CCC(=O)CN.Cl` (stereo not shown) [Compound 13, 2-Methyl-1-pentyl 5-amino-4-oxopentanoate Hydrochloride] was “gave porphyrin formation”; that for `Cl.NCC(=O)CCC(=O)OCCCCc1ccccc1` [Compound 14, 4-Phenyl-1-butyl 5-amino-4-oxopentanoate Hydrochloride] was “only low fluorescence levels”.
The same measure, in the same setting: the value for `Cl.NCC(=O)CCC(=O)OCc1ccc(F)cc1` [Compound 15, 4-Fluorobenzyl 5-amino-4-oxopentanoate Hydrochloride] was “Slightly lower levels”; that for `Cl.NCC(=O)CCC(=O)OCc1ccccc1F` [Compound 17, 2-Fluorobenzyl 5-amino-4-oxopentanoate Hydrochloride] was “intermediate/high activities”; that for `Cl.NCC(=O)CCC(=O)OCc1c(F)c(F)c(F)c(F)c1F` [Compound 18, 2,3,4,5,6-Pentafluorobenzyl 5-amino-4-oxopentanoate Hydrochloride] was “intermediate/high activities”.
Turning to `Cl.NCC(=O)CCC(=O)OCc1ccc(Cl)cc1` [Compound 19, 4-Chlorobenzyl 5-amino-4-oxopentanoate Hydrochloride], the “skin fluorescence level” value in the test with murine skin is on record as “high fluorescence levels”.
As for `Cl.Cl.NCC(=O)CCC(=O)OCc1cccnc1` [Compound 26, 3-Pyridinylmethyl 5-amino-4-Oxopentanoate Dihydrochloride], in the test on murine skin, the “skin fluorescence level” value is “intermediate fluorescence”.
Consider `Cl.NCC(=O)CCC(=O)OCc1ccc(-c2ccccc2)cc1` [Compound 27, 4-Diphenylmethyl 5-amino-4-oxopentanoate Hydrochloride], for which the “skin fluorescence level” value in the test on murine skin was “relatively low fluorescence”.
For the compound `COc1ccc(COC(=O)CCC(=O)CN)cc1.Cl` [Compound 28, 4-Methoxybenzyl 5-amino-4-oxopentanoate Hydrochloride], in the test on murine skin, the “skin fluorescence level” value is “intermediate fluorescence”.
The same measure, in the same setting: to `CC(=O)OC(C)OC(=O)NCC(=O)CCC(=O)OCc1ccccc1` (stereo not shown) [Compound 30, Benzyl 5-[[1-(acetyloxy)ethoxy]carbonyl]amino-4-oxopentanoate] belongs “intermediate/high fluorescence”.
